In patent US6663897B2, “Oral itraconazole formulations and methods of making the same” (DSM IP Assets B.V., priority 2001, dated 2003):

Key:
[1] = cited from earlier work
[2] = Stability study under accelerated conditions (ICH guidelines); type: physicochemical; settings: three months
Procedure: The batch samples prepared under Example 1 were evaluated for stability under accelerated conditions under ICH guidelines and three months stability results are furnished in Table 4. Physical Examination Specification: Size 0 elongated hard gelatin capsule with an opaque white cap and a natural body. Capsules were substantially free from rough edges and spots and were filled with off white colored coated microcrystalline cellulose spheres.

degradation of itraconazole [2]: no significant degradation
SMILES: CCC(C)n1ncn(-c2ccc(N3CCN(c4ccc(OCC5COC(Cn6cncn6)(c6ccc(Cl)cc6Cl)O5)cc4)CC3)cc2)c1=O (racemic) [Itraconazole, (±)-cis-4-[4-[4-[4-[[2-(2,4-dichlorophenyl)-2-(1H-1,2,4-triazol-1-ylmethyl)-1,3-dioxolan-4-yl]methoxy]phenyl]-1-piperazinyl]phenyl]-2,4-dihydro-2-(1-methylpropyl)-3H-1,2,4-triazol-3-one]
0.1 N Hydrochloric acid solubility ([1]; 0.1 N Hydrochloric acid): < 6 micrograms per milliliter | water solubility ([1]; water): less than 1 microgram per milliliter
